According to PubChem BioAssay AID2060605 (Molecular Pharmacology Branch, DTP, NCI, 2025):

Tested on: 947758-054-R-J2-PDC spheroid growth, percent test/control
Test: Anticancer human tumor 947758-054-R-J2-PDC patient-derived colon adenocarcinoma cell line growth inhibition [CLK]
Conditions: spheroids with HUVEC and MSC; for IC50: curve of first compound; for viability, T/C: stronger effect = lower value
Source text: A high-throughput screen of multi-cell type tumor spheroids was designed to identify active combinations of […] and targeted small molecules. Complex spheroids include a stromal component modeled by human endothelial cells (HUVEC) and fibroblasts modeled by human mesenchymal stem cells (MSCs). The concentration ranges selected for each drug and investigational agent were based upon clinically achievable concentrations if the clinical Cmax of the agent was known.
Compounds. The drugs and investigational agents: cirtuvivint (SM08502; NSC835563), CC-671 (NSC850746), vemurafenib (NSC761431), tapotoclax (NSC804041), sotorasib (NSC818433), adagrasib (NSC831453), MRTX-1133 (NSC836407), BAY2416964 (NSC825713), copanlisib (NSC816437), inavolisib (NSC800729), abemaciclib (NSC768073), osimertinib (NSC779217), entinostat (NSC756642), eltanexor (KPT-8602, NSC794443), venetoclax (NSC766270), ceralasertib (NSC777638), bortezomib (NSC756655), olaparib (NSC753686), talazoparib (NSC767125), alisertib (NSC759677), peposertib (NSC802822), gemcitabine (NSC613327), 5-fluorouracil (NSC19893), SN-38 (NSC673596), oxaliplatin (NSC266046), paclitaxel (NSC125973), and doxorubicin (NSC123127), were obtained from the National Cancer Institute (NCI) Developmental Therapeutics Program Chemical Repository. The FDA-approved anticancer drug set is available from the Developmental Therapeutics Program at https://dtp.cancer.gov/organization/dscb/obtaining/available plates.htm. […] The stock solutions were prepared in dimethyl sulfoxide (DMSO, Sigma-Aldrich, St. Louis, MO, cat. D2650), except for the platinum complexes which were prepared in saline (Quality Biological, Gaithersburg, MD, cat. 114-055-101), at 800-fold the tested concentration and stored at -70 degrees C prior to their use. All drugs and investigational agents were tested over a range starting from a high concentration at or near the clinical Cmax and decreasing in half-log increments. If the clinical Cmax for an agent had not been determined, the highest concentration tested was 10 microM.
Cell Culture. All cells were maintained in an incubator at 37 degrees C and 5% CO2 with 95% humidity. The PDC lines were cultured according to standard operating procedures established by the NCI PDMR. Briefly, all PDCs were thawed and cultured in Matrigel-coated flasks prepared with a working solution of 1X Ham's F-12 nutrient mix, without supplementation (Invitrogen, Waltham, MA, cat. 11765054), 100 U/mL penicillin-streptomycin (Invitrogen, cat. 15140122), and 2.5% Matrigel (Corning Inc., Corning, NY, cat. 354248) for the first three passages. The 947758-054-R-J2-PDC line was cultured in 6B/Colon 1A media, which includes advanced DMEM/F-12 (Thermo Fisher Scientific, cat. 12634028), 10 mM HEPES (Thermo Fisher Scientific, cat. 15630080), 1X GlutaMAX supplement (Thermo Fisher Scientific, cat. 35050061), 0.1 mg/mL primocin (InvivoGen, cat. ant-pm-2), 10% defined fetal bovine serum, heat inactivated (HyClone Laboratories Inc., cat. SH30070.03HI), 1.25 mM N-Acetyl-L-cysteine (Sigma-Aldrich, cat. A9165), 10 mM nicotinamide (Sigma-Aldrich, cat. N0636), 1X B-27 supplement (Thermo Fisher Scientific, cat. 17504044), 1X N-2 supplement (Thermo Fisher Scientific, cat. 17502048), and 10 microM Y-27632 dihydrochloride (Tocris Bioscience, cat. 1254). The 876862-298-R-J1-PDC was cultured in 6E media, which includes all 6B/Colon 1A media components plus 50% L-WRN conditioned media (ATCC, cat. CRL-3276), 50 ng/mL recombinant human EGF recombinant protein (hEGF; Thermo Fisher Scientific, cat. PHG0311), 10 ng/mL recombinant human fibroblast growth factor 10 (hGFG-10; PeproTech, cat. 100-26), 1 ng/mL recombinant human fibroblast growth factor 2 (hFGF-2; PeproTech, cat. 100-18B), and 1 µM prostaglandin E2 (PGE2; Tocris, cat. 2296). The 227483-062-R1-J1-PDC line was cultured in Panc media, containing all 6E components except hFGF-2, with the addition of 500 nM SB-431542 (Selleckchem, cat. S1067) and 10 nM gastrin (Tocris, cat. 3006). […]

[1] = second compound 0.0316 µM, first compound 0.0316 µM
[2] = second compound 0.0316 µM, first compound 0.1 µM
[3] = second compound 0.0316 µM, first compound 0.316 µM
[4] = second compound 0.0316 µM, first compound 1 µM
[5] = second compound 0.0316 µM, first compound 3.16 µM
[6] = second compound 0.0316 µM, first compound 10 µM
[7] = second compound 0.1 µM, first compound 0.0316 µM
[8] = second compound 0.1 µM, first compound 0.1 µM
[9] = second compound 0.1 µM, first compound 0.316 µM
[10] = second compound 0.1 µM, first compound 1 µM
[11] = second compound 0.1 µM, first compound 3.16 µM
[12] = second compound 0.1 µM, first compound 10 µM
[13] = second compound 0.316 µM, first compound 0.0316 µM
[14] = second compound 0.316 µM, first compound 0.1 µM
[15] = second compound 0.316 µM, first compound 0.316 µM
[16] = second compound 0.316 µM, first compound 1 µM
[17] = second compound 0.316 µM, first compound 3.16 µM
[18] = second compound 0.316 µM, first compound 10 µM
[19] = second compound 1 µM, first compound 0.0316 µM
[20] = second compound 1 µM, first compound 0.1 µM
[21] = second compound 1 µM, first compound 0.316 µM
[22] = second compound 1 µM, first compound 1 µM
[23] = second compound 1 µM, first compound 3.16 µM
[24] = second compound 1 µM, first compound 10 µM
[25] = second compound 3.16 µM, first compound 0.0316 µM
[26] = second compound 3.16 µM, first compound 0.1 µM
[27] = second compound 3.16 µM, first compound 0.316 µM
[28] = second compound 3.16 µM, first compound 1 µM
[29] = second compound 3.16 µM, first compound 3.16 µM
[30] = second compound 3.16 µM, first compound 10 µM
[31] = second compound 10 µM, first compound 0.0316 µM
[32] = second compound 10 µM, first compound 0.1 µM
[33] = second compound 10 µM, first compound 0.316 µM
[34] = second compound 10 µM, first compound 1 µM
[35] = second compound 10 µM, first compound 3.16 µM
[36] = second compound 10 µM, first compound 10 µM
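Also: spheroids exposed to compounds for one week before readout.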
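For viability, T/C in this document: 100% = DMSO vehicle control wells.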

For C#Cc1c(F)ccc2cc(O)cc(-c3ncc4c(N5CC6CCC(C5)N6)nc(OCC56CCCN5CC(F)C6)nc4c3F)c12 (stereo unspecified) + CN1CCN(c2cc(C(=O)Nc3cc4cc(-c5cnn(C)c5)ccc4cn3)ccn2)CC1, the IC50 (second compound 0.0316 µM) was greater than 10000 nM, the IC50 (second compound 0.1 µM) was greater than 10000 nM and the IC50 (second compound 0.316 µM) was less than 31.6 nM. For the same molecule, the IC50 (second compound 1 µM) was less than 31.6 nM, the IC50 (second compound 3.16 µM) was less than 31.6 nM and the IC50 (second compound 10 µM) was less than 31.6 nM. It also gave a viability, T/C [1] of 103%, a viability, T/C [2] of 123% and a viability, T/C [3] of 126%. For the same molecule, the viability, T/C [4] was 73.3%, the viability, T/C [5] was 107% and the viability, T/C [6] was 118%. The viability, T/C [7] was 145%, the viability, T/C [8] was 214% and the viability, T/C [9] was 187%. The viability, T/C [10] was 214%, the viability, T/C [11] was 216% and the viability, T/C [12] was 148%. The viability, T/C [13] was 5.41%, the viability, T/C [14] was 7.64% and the viability, T/C [15] was 7.09%. It also gave a viability, T/C [16] of 6.71%, a viability, T/C [17] of 6% and a viability, T/C [18] of 5.97%. For the same molecule, the viability, T/C [19] was 0.17%, the viability, T/C [20] was 0.21% and the viability, T/C [21] was 0.18%. For the same molecule, the viability, T/C [22] was 0.22%, the viability, T/C [23] was 0.19% and the viability, T/C [24] was 0.21%. It also gave a viability, T/C [25] of 0.19%, a viability, T/C [26] of 0.24% and a viability, T/C [27] of 0.24%. The viability, T/C [28] was 0.2%, the viability, T/C [29] was 0.23% and the viability, T/C [30] was 0.67%. It also gave a viability, T/C [31] of 0.38%, a viability, T/C [32] of 0.42% and a viability, T/C [33] of 0.33%. It also gave a viability, T/C [34] of 0.37%, a viability, T/C [35] of 0.37% and a viability, T/C [36] of 0.26%.
In the case of C=C(F)C(=O)N1CCN(c2nc(OCC3CCCN3C)nc3c2CCN(c2cccc4cccc(Cl)c24)C3)CC1CC#N (stereo unspecified) + CN1CCN(c2cc(C(=O)Nc3cc4cc(-c5cnn(C)c5)ccc4cn3)ccn2)CC1, the IC50 (second compound 0.0316 µM) is reported as 6610 nM, the IC50 (second compound 0.1 µM) is reported as 7050 nM and the IC50 (second compound 0.316 µM) is reported as less than 31.6 nM. It also gave an IC50 (second compound 1 µM) of less than 31.6 nM, an IC50 (second compound 3.16 µM) of less than 31.6 nM and an IC50 (second compound 10 µM) of less than 31.6 nM. The viability, T/C [1] was 122%, the viability, T/C [2] was 116% and the viability, T/C [3] was 109%. The viability, T/C [4] was 107%, the viability, T/C [5] was 146% and the viability, T/C [6] was 10.6%. It also gave a viability, T/C [7] of 149%, a viability, T/C [8] of 201% and a viability, T/C [9] of 181%. The viability, T/C [10] was 220%, the viability, T/C [11] was 154% and the viability, T/C [12] was 4.69%. For the same molecule, the viability, T/C [13] was 4.5%, the viability, T/C [14] was 5.53% and the viability, T/C [15] was 5.34%. For the same molecule, the viability, T/C [16] was 6.82%, the viability, T/C [17] was 8.16% and the viability, T/C [18] was 1.5%. The viability, T/C [19] was 0.18%, the viability, T/C [20] was 1.06% and the viability, T/C [21] was 0.17%. For the same molecule, the viability, T/C [22] was 2.25%, the viability, T/C [23] was 0.12% and the viability, T/C [24] was 0.96%. For the same molecule, the viability, T/C [25] was 1.29%, the viability, T/C [26] was 0.25% and the viability, T/C [27] was 0.21%. It also gave a viability, T/C [28] of 0.24%, a viability, T/C [29] of 0.14% and a viability, T/C [30] of 0.12%. For the same molecule, the viability, T/C [31] was 1.57%, the viability, T/C [32] was 1.69% and the viability, T/C [33] was 0.29%. It also gave a viability, T/C [34] of 0.31%, a viability, T/C [35] of 1.29% and a viability, T/C [36] of 1.41%.
Molecule CC(CO)NC(=O)c1cc(-c2ccc(Cl)cc2)nn(-c2cnn(C)c2)c1=O (stereo unspecified) + CN1CCN(c2cc(C(=O)Nc3cc4cc(-c5cnn(C)c5)ccc4cn3)ccn2)CC1 has an IC50 (second compound 0.0316 µM) greater than 10000 nM, an IC50 (second compound 0.1 µM) greater than 10000 nM and an IC50 (second compound 0.316 µM) of less than 31.6 nM. The IC50 (second compound 1 µM) was less than 31.6 nM, the IC50 (second compound 3.16 µM) was less than 31.6 nM and the IC50 (second compound 10 µM) was less than 31.6 nM. It also gave a viability, T/C [1] of 91.8%, a viability, T/C [2] of 112% and a viability, T/C [3] of 105%. The viability, T/C [4] was 110%, the viability, T/C [5] was 126% and the viability, T/C [6] was 155%. For the same molecule, the viability, T/C [7] was 184%, the viability, T/C [8] was 179% and the viability, T/C [9] was 175%. It also gave a viability, T/C [10] of 199%, a viability, T/C [11] of 182% and a viability, T/C [12] of 133%. For the same molecule, the viability, T/C [13] was 5.49%, the viability, T/C [14] was 6.26% and the viability, T/C [15] was 5.8%. For the same molecule, the viability, T/C [16] was 5.69%, the viability, T/C [17] was 4.92% and the viability, T/C [18] was 2.57%. The viability, T/C [19] was 0.15%, the viability, T/C [20] was 0.19% and the viability, T/C [21] was 0.18%. It also gave a viability, T/C [22] of 0.36%, a viability, T/C [23] of 0.15% and a viability, T/C [24] of 0.14%. For the same molecule, the viability, T/C [25] was 0.28%, the viability, T/C [26] was 0.97% and the viability, T/C [27] was 0.25%. For the same molecule, the viability, T/C [28] was 0.24%, the viability, T/C [29] was 0.25% and the viability, T/C [30] was 0.31%. The viability, T/C [31] was 0.4%, the viability, T/C [32] was 0.42% and the viability, T/C [33] was 0.35%. For the same molecule, the viability, T/C [34] was 0.41%, the viability, T/C [35] was 0.42% and the viability, T/C [36] was 0.36%.
